Measured values published in patent US8889874B2, “Imidazolone-chalcone derivatives as potential anticancer agent and process for the preparation thereof” (Council of Scientific and Industrial Research, priority 2010, dated 2014).
Read-outs that look alike come from different tables or passages of the source.

How the values were obtained:
Assay type in all cases: cell-based, human
[1] = tested on: Leukemia cancer cell lines; test: NCI anticancer screen, SRB assay, panel summary; settings: Homo sapiens
Procedure: (§1) Some of biological activity studies were carried out at the National Cancer Institute (NCI), Maryland, USA.
(§2) The compounds were evaluated for anticancer activity against fifty three human cancer cells derived from nine cancer types (leukemia cell line, non-small-cell lung cell line, colon cell line, CNS cell line, melanoma cell line, ovarian cell line, prostate cell line, and breast cancer cell line) as shown in Table 1. For each compound, dose response curves for each cell line were measured at a minimum of five concentrations at 10 fold dilutions. A protocol of 48 h continuous drug exposure was used and a sulforhodamine B (SRB) protein assay was used to estimate cell viability or growth.

[2] = tested on: Melanoma cancer cell lines; test: NCI anticancer screen, SRB assay, panel summary; settings: for GI50: Homo sapiens
Procedure: as §1, §2

Colon cancer cell lines = test: NCI anticancer screen, SRB assay, panel summary; settings: for GI50: Homo sapiens
Procedure: as §1, §2

Breast cancer cell lines = test: NCI anticancer screen, SRB assay, panel summary; settings: Homo sapiens
Procedure: as §1, §2

Renal cancer cell lines = test: NCI anticancer screen, SRB assay, panel summary; settings: Homo sapiens
Procedure: as §1, §2

[3] = tested on: Non-small cell lung cancer cell lines; test: NCI anticancer screen, SRB assay, panel summary; settings: Homo sapiens
Procedure: as §1, §2

[4] = tested on: Ovarian cancer cell lines; test: NCI anticancer screen, SRB assay, panel summary; settings: Homo sapiens
Procedure: as §1, §2

CNS cancer cell lines = test: NCI anticancer screen, SRB assay, panel summary; settings: for GI50: Homo sapiens
Procedure: as §1, §2

[5] = tested on: RPMI-8226 (leukemia cell line); test: NCI anticancer screen, SRB assay, 48 h; settings: Homo sapiens
Method in brief: (§3)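 Sulforhodamine B protein assay read cell growth after 48 h of continuous compound exposure. Dose-response curves per cell line used at least five 10-fold-diluted concentrations, within a panel of fifty-three human lines from nine tumour types.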

786-0 (renal) = test: NCI anticancer screen, SRB assay, 48 h; settings: Homo sapiens
Method in brief: as §3

SF-295 (CNS) = test: NCI anticancer screen, SRB assay, 48 h; settings: Homo sapiens
Method in brief: as §3

HCT-116 (colon) = test: NCI anticancer screen, SRB assay, 48 h; settings: Homo sapiens
Method in brief: as §3

SK-MEL-5 (melanoma) = test: NCI anticancer screen, SRB assay, 48 h; settings: Homo sapiens
Method in brief: as §3

SW-620 (colon) = test: NCI anticancer screen, SRB assay, 48 h; settings: Homo sapiens
Method in brief: as §3

SK-MEL-28 (melanoma) = test: NCI anticancer screen, SRB assay, 48 h; settings: Homo sapiens
Method in brief: as §3

UO-31 (renal) = test: NCI anticancer screen, SRB assay, 48 h; settings: Homo sapiens
Method in brief: as §3

[6] = tested on: A549/ATCC (non-small cell lung); test: NCI anticancer screen, SRB assay, 48 h; settings: Homo sapiens
Method in brief: as §3

U251 (CNS) = test: NCI anticancer screen, SRB assay, 48 h; settings: Homo sapiens
Method in brief: as §3

OVCAR-4 (ovarian) = test: NCI anticancer screen, SRB assay, 48 h; settings: Homo sapiens
Method in brief: as §3

RXF 393 (renal) = test: NCI anticancer screen, SRB assay, 48 h; settings: Homo sapiens
Method in brief: as §3

A498 (renal) = test: NCI anticancer screen, SRB assay, 48 h; settings: Homo sapiens
Method in brief: as §3

MDA-MB-435 (melanoma) = test: NCI anticancer screen, SRB assay, 48 h; settings: Homo sapiens
Method in brief: as §3

MCF7 (breast) = test: NCI anticancer screen, SRB assay, 48 h; settings: Homo sapiens
Method in brief: as §3

[7] = tested on: NCI-H322M (non-small cell lung); test: NCI anticancer screen, SRB assay, 48 h; settings: Homo sapiens
Method in brief: as §3

[8] = 48 h exposure, SRB, read-out: GI50
[9] = read-out: pGI50 (-log of molar concentration causing 50% inhibition of net cell growth) (converted)

O=C(/C=C/c1cccc(O)c1)c1cccc(-n2cc(-c3ccc(Cl)cc3)[nH]c2=O)c1 [4f, 4-(4-chlorophenyl)-1-3-[(E)-3-(3-hydroxyphenyl)-2-propenoyl]phenyl-2,3-dihydro-1H-2-imidazolone]
GI50 ([1]; Leukemia panel, log of concentration in mol/L causing 50% inhibition of net cell growth, read-out: mean graph midpoint (MG_MID) of Log10 GI50 (converted)): 794 nM
LC50 ([1]; Leukemia panel, log of concentration leading to 50% net cell death, read-out: mean graph midpoint (MG_MID) of Log10 LC50 (converted)): 87100 nM
GI50 ([1]; two leukemia cancer cell lines (RPMI-8226 and K-562), exposure at least 48 hrs, read-out: GI50, range over the panel): 400 to 1550 nM
GI50 ([2]; Melanoma panel, log of concentration in mol/L causing 50% inhibition of net cell growth, read-out: mean graph midpoint (MG_MID) of Log10 GI50 (converted)): 2190 nM
GI50 ([2]; nine melanoma cancer cell lines, exposure at least 48 hrs, read-out: GI50, range over the panel): 1530 to 4070 nM
mean graph midpoint (MG_MID) of Log10 LC50 ([2]; Melanoma panel, log of concentration leading to 50% net cell death): 4.55
mean graph midpoint (MG_MID) of Log10 LC50 (Colon cancer cell lines; Colon panel, log of concentration leading to 50% net cell death): 4.68
GI50 (Colon cancer cell lines; Colon panel, log of concentration in mol/L causing 50% inhibition of net cell growth, read-out: mean graph midpoint (MG_MID) of Log10 GI50 (converted)): 2340 nM
GI50 (Colon cancer cell lines; seven colon cancer cell lines, exposure at least 48 hrs, read-out: GI50, range over the panel): 1230 to 13700 nM
GI50 (Breast cancer cell lines; Breast panel, log of concentration in mol/L causing 50% inhibition of net cell growth, read-out: mean graph midpoint (MG_MID) of Log10 GI50 (converted)): 2190 nM
LC50 (Breast cancer cell lines; Breast panel, log of concentration leading to 50% net cell death, read-out: mean graph midpoint (MG_MID) of Log10 LC50 (converted)): 63100 nM
GI50 (Breast cancer cell lines; five breast cancer cell lines, exposure at least 48 hrs, read-out: GI50, range over the panel): 1290 to 4000 nM
GI50 (Renal cancer cell lines; Renal panel, log of concentration in mol/L causing 50% inhibition of net cell growth, read-out: mean graph midpoint (MG_MID) of Log10 GI50 (converted)): 1780 nM
LC50 (Renal cancer cell lines; Renal panel, log of concentration leading to 50% net cell death, read-out: mean graph midpoint (MG_MID) of Log10 LC50 (converted)): 27500 nM
GI50 (Renal cancer cell lines; eight renal cancer cell lines, exposure at least 48 hrs, read-out: GI50, range over the panel): 550 to 3710 nM
GI50 ([3]; Non-small cell lung panel, log of concentration in mol/L causing 50% inhibition of net cell growth, read-out: mean graph midpoint (MG_MID) of Log10 GI50 (converted)): 2340 nM
LC50 ([3]; Non-small cell lung panel, log of concentration leading to 50% net cell death, read-out: mean graph midpoint (MG_MID) of Log10 LC50 (converted)): 57500 nM
GI50 ([3]; nine non-small cell lung cancer cell lines, exposure at least 48 hrs, read-out: GI50, range over the panel): 1600 to 3550 nM
GI50 ([4]; Ovarian panel, log of concentration in mol/L causing 50% inhibition of net cell growth, read-out: mean graph midpoint (MG_MID) of Log10 GI50 (converted)): 2040 nM
LC50 ([4]; Ovarian panel, log of concentration leading to 50% net cell death, read-out: mean graph midpoint (MG_MID) of Log10 LC50 (converted)): 46800 nM
GI50 ([4]; six ovarian cancer cell lines, exposure at least 48 hrs, read-out: GI50, range over the panel): 990 to 4210 nM
mean graph midpoint (MG_MID) of Log10 LC50 (CNS cancer cell lines; CNS panel, log of concentration leading to 50% net cell death): 4.87
GI50 (CNS cancer cell lines; CNS panel, log of concentration in mol/L causing 50% inhibition of net cell growth, read-out: mean graph midpoint (MG_MID) of Log10 GI50 (converted)): 1450 nM
GI50 (CNS cancer cell lines; six CNS cancer cell lines, exposure at least 48 hrs, read-out: GI50, range over the panel): 580 to 1920 nM
GI50 [5, 8]: 1550 nM
GI50 [5, 9]: 1550 nM
GI50 (786-0 (renal); [8]): 1570 nM
GI50 (786-0 (renal); [9]): 1580 nM
GI50 (SF-295 (CNS); [8]): 1790 nM
GI50 (SF-295 (CNS); [9]): 1780 nM
GI50 (HCT-116 (colon); [8]): 1230 nM
GI50 (HCT-116 (colon); [9]): 1230 nM
GI50 (SK-MEL-5 (melanoma); [8]): 1530 nM
GI50 (SK-MEL-5 (melanoma); [9]): 1510 nM
GI50 (SW-620 (colon); [8]): 1620 nM
GI50 (SW-620 (colon); [9]): 1620 nM
GI50 (SK-MEL-28 (melanoma); [8]): 3640 nM
GI50 (SK-MEL-28 (melanoma); [9]): 3630 nM
GI50 (UO-31 (renal); [8]): 550 nM
GI50 (UO-31 (renal); [9]): 550 nM
GI50 [6, 8]: 3550 nM
GI50 [6, 9]: 3550 nM
GI50 (U251 (CNS); U-251, 48 h exposure, SRB, read-out: GI50): 580 nM
GI50 (U251 (CNS); U-251, read-out: pGI50 (-log of molar concentration causing 50% inhibition of net cell growth) (converted)): 575 nM
GI50 (OVCAR-4 (ovarian); [8]): 2210 nM
GI50 (OVCAR-4 (ovarian); [9]): 2190 nM
GI50 (RXF 393 (renal); RXF 393, 48 h exposure, SRB, read-out: GI50): 1510 nM
GI50 (RXF 393 (renal); RXF-393, read-out: pGI50 (-log of molar concentration causing 50% inhibition of net cell growth) (converted)): 1510 nM
GI50 (A498 (renal); [8]): 3710 nM
GI50 (A498 (renal); [9]): 3720 nM
GI50 (MDA-MB-435 (melanoma); [8]): 2060 nM
GI50 (MDA-MB-435 (melanoma); [9]): 2040 nM
GI50 (MCF7 (breast); [8]): 1270 nM
GI50 (MCF7 (breast); [9]): 1290 nM
GI50 [7, 8]: 2520 nM
GI50 [7, 9]: 2510 nM
